Experimental data reported in patent US20050043341A1, “3-'Hydroxy-(-4-trifluoromethylphenyl)-methyl-7-spirocyclobutyl-5,6,7 8-tetrahydroquinolin-5-ol derivatives and the use of the same as cholesterol ester transfer protein (cetp) inhibitors” (priority 2001, published 2005).

Assays:
CETP [1] = target: T1, CETP (Homo sapiens, UniProt P11597); experiment: CETP fluorescence test; type: biochemical; settings: CETP from human plasma, 37° C., 4 hours; read-out: IC50 (nM) Fluor. test
T1 construct: CETP is obtained in partially purified form from human plasma; from tissue; host or cells: human plasma
T1 sequence (P11597 18-493): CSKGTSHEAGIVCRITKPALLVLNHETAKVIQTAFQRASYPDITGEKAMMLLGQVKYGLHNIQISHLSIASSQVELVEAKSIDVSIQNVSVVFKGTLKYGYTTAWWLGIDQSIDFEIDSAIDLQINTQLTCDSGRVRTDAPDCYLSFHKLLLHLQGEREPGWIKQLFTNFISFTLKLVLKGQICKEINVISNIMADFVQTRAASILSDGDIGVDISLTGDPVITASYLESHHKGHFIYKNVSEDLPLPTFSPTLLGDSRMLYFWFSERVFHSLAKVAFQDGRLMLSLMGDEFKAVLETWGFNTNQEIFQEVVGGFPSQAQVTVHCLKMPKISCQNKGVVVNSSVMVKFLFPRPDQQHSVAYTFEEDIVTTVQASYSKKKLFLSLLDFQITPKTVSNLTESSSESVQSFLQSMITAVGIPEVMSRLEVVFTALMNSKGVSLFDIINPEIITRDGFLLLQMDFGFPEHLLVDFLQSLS
Procedure: (§1) CETP is obtained in partially purified form from human plasma by differential centrifugation and column chromatography and used for the test. To this end, human plasma is adjusted to a density of 1.21 g per ml using NaBr and centrifuged at 4° C. at 50000 rpm for 18 h. The bottom fraction (d>1.21 g/ml) is applied to a Sephadex® Phenyl-Sepharose 4B (Pharmacia) column, washed with 0.15 M NaCl/0.001 M tris HCl pH 7.4 and then eluted with dist. water. Die CETP-active fractions are pooled, dialysed against 50 mM Na acetate pH 4.5 and applied to a CM-Sepharose® (Pharmacia) column. The mixture is then eluted using a linear gradient (0-1 M NaCl). The pooled CETP fractions are dialysed against 10 mM TrisHCl pH 7.4 and then further purified by chromatography on a Mono Q® column (Pharmacia).
Measurement of the CETP-catalysed transfer of a fluorescent cholesterol ester between liposomes—modified according to the procedure of Bisgaier et al., J. Lipid Res. 34, 1625 (1993).
For the production of the donor liposomes, 1 mg of cholesteryl 4,4-difluoro-5,7-dimethyl-4-bora-3a,4a-diaza-s-indacene-3-dodecanoate (cholesteryl BODIPY® FL C12, Molecular Probes) is dissolved in 600 μl of dioxane with 5.35 mg of triolein and 6.67 mg of phosphatidylcholine with gentle warming in an ultrasonic bath and this solution is added very slowly with ultrasonication to 63 ml of 50 mM tris/HCl, 150 mM NaCl, 2 mM EDTA buffer pH 7.3 at RT.
The suspension is then ultrasonicated under an N2 atmosphere for 30 minutes in the Braukson ultrasonic bath at about 50 watts, the temperature being kept at about 20° C.
The acceptor liposomes are obtained analogously from 86 mg of cholesteryl oleate, 20 mg of triolein and 100 mg of phosphatidylcholine dissolved in 1.2 ml of dioxane and 114 ml of above buffer by ultrasonication at 50 watts (20° C.) for 30 minutes.
For testing, a test mix consisting of 1 part of above buffer, 1 part of donor liposomes and 2 parts of acceptor liposomes is used.
80 μl of test mix are treated with 1-3 μg of enriched CETP fraction, obtained from human plasma by means of hydrophobic chromatography, and 2 μl of the substance to be investigated in DMSO and incubated at 37° C. for 4 hours.
The change in the fluorescence at 485/535 nm is a measure of the CE transfer; the inhibition of the transfer in comparison to the control batch without substance is determined.

transgenic hCETP mice = experiment: In vivo activity in transgenic hCETP mice (HDL); settings: stomach tube
Procedure: In experiments for the determination of the oral action on lipoproteins and triglycerides, test substance is administered to transgenic mice using a stomach tube (Dinchuck, Hart, Gonzalez, Karmann, Schmidt, Wirak; BBA (1995), 1295, 301). Before the start of the experiment, blood is taken from the mice retroorbitally in order to determine cholesterol and triglycerides in the serum. The serum is obtained as described above for hamsters by incubation at 4° C. overnight and subsequent centrifugation at 6000×g. […] The change in the parameters measured is expressed as the percentage change compared with the starting value.

Syrian golden hamsters = experiment: In vivo activity in Syrian golden hamsters (HDL cholesterol); settings: perorally
Procedure: In experiments for the determination of the oral action on lipoproteins and triglycerides, test substance dissolved in DMSO and 0.5% suspended in Tylose are administered perorally by means of a stomach tube to Syrian golden hamsters bred in-house. For the determination of the CETP activity, before the start of the experiment blood is taken by retro-orbital puncture (about 250 μl). The test substances are then administered perorally by means of a stomach tube. The control animals receive identical volumes of solvent without test substance. The feed is then withdrawn from the animals and blood is taken at various times—up to 24 hours after substance administration—by puncture of the retroorbital venous plexus.
Clotting is terminated by incubation at 4° C. overnight, then centrifugation is carried out for 10 minutes at 6000×g. The content of cholesterol and triglycerides in the serum thus obtained is determined with the aid of modified commercially obtainable enzymatic tests (Ecoline 25 Cholesterol 1.14830.0001 Merck Diagnostica, Ecoline 25 Triglycerides 1.14856.0001 Merck Diagnostica). Serum is suitably diluted using physiological saline solution.
10 μl of serum dilution are treated with 200 μl of Ecoline 25 reagent in 96-hole plates and incubated for 10 minutes at room temperature. The optical density is then determined at a wavelength of 490 nm using an automatic plate reader. The triglyceride or cholesterol concentration contained in the samples is determined with the aid of a standard curve measured in parallel.
The determination of the content of HDL cholesterol is carried out after precipitation of the ApoB-containing lipoproteins (Sigma 352-4 HDL cholesterol reagent) according to the manufacturer's instructions.

CETP [2] = target: T1, CETP; experiment: CETP-SPA test; type: biochemical; settings: 3H-cholesterol ester transfer from HDL to biotin-LDL, 37° C., 18 h
Procedure: as §1
50 ml of fresh human EDTA plasma are adjusted to a density of 1.12 using NaBr and centrifuged at 4° C. in a Ty 65 rotor at 50000 rpm for 18 h. The upper phase is used for the obtainment of cold LDL. The lower phase is dialysed against 3×41 of PDB buffer (10 mM tris/HCl pH 7.4, […], 1 mM EDTA, 0.02% NaN3). Per 10 ml of retentate volume, 20 μl of 3H-cholesterol (Dupont NET-725; 1 μC/μl dissolved in ethanol!) is then added and the mixture is incubated at 37° C. under N2 for 72 h.
The batch is then adjusted to the density 1.21 using NaBr and centrifuged at 20° C. in a Ty 65 rotor at 50000 rpm for 18 h. The upper phase is recovered and the lipoprotein fractions are purified by gradient centrifugation. To this end, the isolated, labelled lipoprotein fraction is adjusted to a density of 1.26 using NaBr. 4 ml each of this solution are covered in centrifuged tubes (SW 40 rotor) with a layer of 4 ml of a solution of density 1.21 and 4.5 ml of a solution of 1.063 (density solutions of PDB buffer and NaBr) and then centrifuged for 24 h at 38000 rpm and 20° C. in the SW 40 rotor. The intermediate layer lying between the density 1.063 and 1.21, containing the labelled HDL, is dialysed against 3×100 volumes of PDB buffer at 4° C.
The retentate contains radiolabelled ^3H-CE-HDL, which, adjusted to about 5×10^6 cmp per ml, is used for the test.
For testing of the CETP activity, the transfer of ^3H-cholesterol ester from human HD lipoproteins to biotinylated LD lipoproteins is measured.
The reaction is ended by addition of streptavidin-SPA®beads (Amersham) and the transferred radioactivity is determined directly in a liquid scintillation counter.
In the test batch, 10 μl of HDL-^3H-cholesterol ester (˜50000 cpm) are incubated at 37° C. for 18 h with 10 μl of biotin-LDL (Amersham) in 50 mM Hepes/0.15 M NaCl/0.1% bovine serum albumin/0.05% NaN3 pH 7.4 containing 10 μl of CETP (1 mg/ml) and 3 μl of solution of the substance to be tested (dissolved in 10% DMSO/1% RSA). 200 μl of the SPA-streptavidin bead solution (TRKQ 7005) are then added, incubated further with shaking for 1 h and then measured in a scintillation counter.
Corresponding incubations with 10 μl of buffer, 10 μl of CETP at 4° C. and 10 μl of CETP at 37° C. serve as controls.
The activity transferred in the control batches with CETP at 37° C. is rated as 100% transfer. The substance concentration at which this transfer is reduced to half is specified as the IC50 value.

IC50 (CETP [1]) [nM]	IC50 (CETP [2]) [nM]	SMILES	% HDL increase after 4 d (Dose: 4 × 10 mg/kg) (transgenic hCETP mice) [%]	% HDL increase after 24 h (Dose: 2 × 10 mg/kg) (Syrian golden hamsters) [%]
70	–	CC(C)c1nc2c(c(C3CCCC3)c1[C@@H](O)c1ccc(C(F)(F)F)cc1)[C@@H](O)CC1(CCC1)C2 [Example 69, (5S)-2-Isopropyl-4-cyclopentyl-3-[(S)-hydroxy-(4-trifluoromethylphenyl)-methyl]-7-spirocyclobutyl-5,6,7,8-tetrahydroquinolin-5-ol]	28	–
40	–	O[C@@H](c1ccc(C(F)(F)F)cc1)c1c(C2CCCC2)nc2c(c1C1CCCC1)[C@@H](O)CC1(CCC1)C2 [Example 71, (5S)-2,4-Dicyclopentyl-3-[(S)-hydroxy-(4-trifluoromethylphenyl)-methyl]-7-spirocyclobutyl-5,6,7,8-tetrahydroquinolin-5-ol]	–	14
9	5	O[C@@H](c1ccc(C(F)(F)F)cc1)c1c(C2CCCC2)nc2c(c1-c1ccc(F)cc1)[C@@H](O)CC1(CCC1)C2 [Example 80, (5S)-2-Cyclopentyl-4-(4-fluorophenyl)-3-[(S)-hydroxy-(4-trifluoromethylphenyl)-methyl]-7-spirocyclobutyl-5,6,7,8-tetrahydroquinolin-5-ol]	–	17
